Holding throughout (assay type): cell-based
The nature of assay [1]: Activation of PKC signaling in human HUES8 cells assessed as increase in Pdx1-expressing cells at 500 nM after 4 days by immunocytochemistry pregrown in medium with Wnt3a, activin A, FGF10, KAAD-cyclopamine and retinoic acid relative to ILV treated cells.
Assay [2] can be described thus: Activation of PKC signaling in human HUES8 definitive endoderm cells assessed as increase in Pdx1-expressing cells at 500 nM after 4 days by immunocytochemistry (reference value: 2.8+/-0.6%).
Assay [3] in a line: Activation of PKC signaling in human HUES8 cells assessed as increase in Pdx1-expressing cells at 14 nM after 4 days by immunocytochemistry pregrown in medium with Wnt3a, activin A, FGF10, KAAD-cyclopamine and retinoic acid relative to ILV treated cells.
The nature of assay [4]: Activation of PKC signaling in human HUES8 definitive endoderm cells assessed as increase in Pdx1-expressing cells at 14 nM after 4 days by immunocytochemistry (reference value: 2.8+/-0.6%).

As a reminder, the inhibition is the relative decrease from the control value, in per cent. Regarding `CC(C)[C@H]1C(=O)N[C@H](CO)Cc2cc(NC(=O)/C=C/C=C/c3ccc(C(F)(F)F)cc3)ccc2N1C`, the inhibition in assay [1] came out at 15.4%; in assay [2], 12.2%.

In the case of `CCCCCCCCCCCCCC(=O)O[C@@H]1[C@@H](C)[C@@]2(O)[C@@H](C=C(CO)C[C@]3(O)C(=O)C(C)=C[C@@H]23)[C@@H]2C(C)(C)[C@]12OC(C)=O`, the inhibition amounted to 21.3% in assay [3] and 18.3% in assay [4].
